Broadly, the EC50 is the concentration that produces a half-maximal response. Broadly, the IC50 is the midpoint of a concentration-inhibition curve. Read a high IC50 as weaker potency.

The target in test [1] is HIV-1 RT-associated RNase H activity (Human immunodeficiency virus type 1 group M subtype B, UniProt P04585). The test can be described thus: HIV-1 RT RNase H inhibition. It counts as biochemical.
The next test relates to HTLV-IIIB. The settings on record: read-out: EC50, originally reported; HTLV-IIIB-based infection assay; ref 19b; cited from earlier work.
Test [2] addresses polymerase function of RT (Human immunodeficiency virus type 1 group M subtype B, UniProt P04585). Briefly: HIV-1 RT polymerase inhibition. It counts as biochemical.
A further test concerns HIV-1(IIIB). Briefly: HIV-1 replication inhibition in HeLa-CD4-LTR-β-gal cells. The class given is cell-based.
Test [3] concerns the target HIV-1 IN (rIN), strand transfer (Human immunodeficiency virus type 1 group M subtype B, UniProt P04585). Briefly: HIV-1 IN gel-based assay, strand transfer. The class given is biochemical. The settings on record: IC50 for strand transfer.

On to `Cc1nnc(C(=O)NC(C)(C)c2nc(C(=O)NCc3ccc(F)cc3)c(O)c(=O)n2C)o1` [Compound 2, raltegravir], for which the “Ability to inhibit RNase H” value in test [1] is “inactive”.

Regarding `C[C@@H]1CCO[C@H]2Cn3cc(C(=O)NCc4ccc(F)cc4F)c(=O)c(O)c3C(=O)N12` [Compound 3, dolutegravir], the “Ability to inhibit RNase H” value in test [1] was “inactive”.

Consider `O=C(O)/C(O)=C/C(=O)c1cn(Cc2ccc(F)cc2)c2cc(N3CCCC3)ccc2c1=O` [Compound 7b, reference compound], for which, in the test on HTLV-IIIB, the half-maximal effective concentration (EC50) was 170 nM. In addition, the “Inhibition of polymerase function of RT (inactive up to)” value (shortened to “Inhibition of polymerase function of RT”) in test [2] is greater than 40 µM.

As to `CCOC(=O)/C(O)=C/C(=O)c1cn(Cc2ccc(F)cc2)c2cc(N(C)C)ccc2c1=O` [Compound 11g, 4-[1-[(4-Fluorophenyl)methyl]-7-(dimethylamino)-4-(1H)-quinolinon-3-yl]-2-hydroxy-4-oxo-2-butenoic Acid Ethyl Ester], the “SI, selectivity index (CC50/EC50)” value with HIV-1(IIIB) (CC50/EC50 in HeLa cells) was determined as 20.

With `O=C(O)/C(O)=C/C(=O)c1cn(Cc2ccc(F)cc2)c2cc(N3CCOCC3)ccc2c1=O` [Compound 12f, 4-[1-[(4-Fluorophenyl)methyl]-7-(morpholin-4-yl)-4-(1H)-quinolinon-3-yl]-2-hydroxy-4-oxo-2-butenoic Acid], the “Inhibition of polymerase function of RT” value in test [2] was greater than 40 µM. The same compound came in with an IC50 in test [3] of less than 100 nM.

Take `O=C(O)/C(O)=C/C(=O)c1cn(Cc2ccc(F)cc2)c2cc(N3CCN(CCCCl)CC3)ccc2c1=O` [Compound 12i, 4-[1-[(4-Fluorophenyl)methyl]-7-[N-(3-chloroprop-1-yl)piperazin-1-yl]-4-(1H)-quinolinon-3-yl]-2-hydroxy-4-oxo-2-butenoic Acid]: in test [2], the “Inhibition of polymerase function of RT” value was greater than 40 µM. Moreover, the “Block of HIV-1 replication” value in the test with HIV-1(IIIB) (HeLa-CD4-LTR-β-gal cells, HIV-1(IIIB)) is reported as “unable to block replication”. The 50% inhibitory concentration (IC50) in test [3] is less than 100 nM.
